The results in this text go back to PubChem BioAssay (NCI).

Assay in all cases: growth of human tumour cells (NCI), 48 h
For test [1], the system named is ACHN renal.
For test [2], the system named is EKVX NSCLC.
Test [3] concerns HOP-62 NSCLC.
Test [4] relates to K-562 leukemia.
In test [5] the test system is OVCAR-4 ovarian.
Test [6] relates to SF-295 CNS.
Test [7] concerns SK-MEL-28 melanoma.
For test [8], the system named is SK-OV-3 ovarian.
Test [9] has as its system SN12C renal.
Test [10] deals with RXF 393 renal.

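Growth conditions: 96-well plates. Treatment: test compound, 48 hours, 5 concentrations. Analysis: linear interpolation between bracketing concentrations; unreached endpoints set to highest concentration. Here, GI50 denotes the concentration required for 50% inhibition of growth. At the TGI there is no net growth.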 Where only a bound is given, the exact number is not on record here.

On to `COc1ccc2[nH]cc(-c3nc(-c4c[nH]c5ncccc45)cs3)c2c1`, for which the GI50 in test [1] is 2.85 µM; in [2] it was 5.79 µM; in [3] it was 5.23 µM; in test [4], 2.68 µM; in test [5] it was 6.89 µM; in [6] it was 2.66 µM. The GI50 was 6.43 µM in test [7], 4.41 µM in test [8] and 4.96 µM in [9]. The TGI was above 100 µM in [1]; above 100 µM in [2]; above 100 µM in test [3]; above 100 µM in [4]; above 100 µM in test [5]; 6.87 µM in test [6]. Besides, the TGI in [7], in [8] and in test [9] was above 100 µM throughout.
For the compound `c1ccc(SC2CCSc3ccccc3C2Sc2ccccc2)cc1` (centres undefined), the TGI in test [1], in test [2], in test [3], in test [4], in [5] and in test [6] was above 100 µM in each case. Besides, in [9], the TGI is above 100 µM.
`O=c1[nH]c(=O)n(C2CC(O)C(CO)O2)cc1CO` (centres undefined): the GI50 in test [1], in test [3], in [4], in test [5], in test [10] and in test [6] was above 100 µM each time. The GI50 was above 100 µM in test [7], above 100 µM in test [8] and 91.7 µM in test [9]. Besides, the TGI in [1], in test [3], in test [4], in test [5], in test [10] and in test [6] was above 100 µM throughout. The TGI in test [7], in test [8] and in test [9] was above 100 µM throughout.
In the case of `COc1cc(-c2nn(-c3cccc(NC(=O)Nc4ccc(Cl)c(Cl)c4)c3)cc2-c2ccncc2)ccc1Cl`, the GI50 is 1 µM in test [1]; 1.44 µM in test [3]; 0.89 µM in [4]; 1.29 µM in [5]; 0.859 µM in test [10]; 0.691 µM in test [6]. In addition, the values for the GI50 in [7], in test [8] and in test [9] were 1.43 µM, 1.93 µM and 1.47 µM, respectively. Besides, the TGI in [1] was above 50 µM; in [3], 4.9 µM; in test [4], above 50 µM; in test [5] it was above 50 µM; in test [10], 2.44 µM; in test [6], 2.53 µM. Besides, the TGI in [7] was 7.32 µM; in [8], above 50 µM; in test [9] it was above 50 µM.
Regarding `COC(=O)[C@]1(C)CCCC2(C)C1CC[C@H]1C=C(C)[C@H]3CCC12C3` (some centres undefined), the TGI in test [1], in test [3], in test [4], in test [5], in test [10] and in test [6] was above 100 µM throughout. The TGI in test [7], in [8] and in test [9] was above 100 µM in each case.
`CC[C@@]12N=C(N(C)C)C[C@]1(O)ON=C2C`: the TGI in test [1], in test [2], in [4], in test [5], in test [10] and in test [6] was above 100 µM throughout. Besides, the TGI in test [7], in test [8] and in [9] was above 100 µM in each case.
For the compound `Cc1ccc(NC(=O)C2C(=O)N(c3ccc(C)c(C)c3)C(=O)C2N=N)cc1C` (centres undefined), the TGI in test [1], in test [2], in test [3], in test [5], in test [10] and in test [6] was above 100 µM throughout. The TGI in test [7], in [8] and in test [9] was above 100 µM each time.
Consider `COc1ccccc1N1CCN(CCCn2c(=O)c3c(OC)nc(C)cc3c(=O)n2-c2ccccc2)CC1`, for which the GI50 in test [1], in test [2], in test [3], in test [4], in [5] and in test [6] was above 100 µM in each case. The GI50 in test [7], in [8] and in test [9] was above 100 µM throughout. In addition, the TGI in test [1], in test [2], in test [3], in test [4], in test [5] and in [6] was above 100 µM in each case. In addition, the TGI in test [7], in [8] and in test [9] was above 100 µM each time.
As to `COc1ccc2oc(-c3cccnc3)cc(=O)c2c1`, the TGI in test [1], in test [3], in test [4], in test [5], in test [10] and in [6] was above 100 µM in each case. The TGI in test [7] and in test [9] was above 100 µM throughout.
As to `Nc1c(C(=O)Nc2cccc(Br)c2)sc2nc3c(cc12)C(=O)CCC3`, the GI50 in [1] is 15.7 µM; in test [3], 1.41 µM; in test [4] it was 0.14 µM; in [5], 28.5 µM; in test [10] it was 0.372 µM; in test [6], 0.455 µM. Further, the values for the GI50 in test [8] and in test [9] were 0.501 µM and 0.779 µM, respectively. Also, the TGI is above 100 µM in test [1]; above 100 µM in [3]; above 100 µM in [4]; above 100 µM in [5]; 15.9 µM in [10]; above 59.7 µM in test [6]. Besides, the TGI in test [7], in test [8] and in test [9] was above 100 µM in each case.
As to `COc1ccc(/C(=N\NC(=O)C(N)=O)C(c2ccc(OC)cc2)C2(O)C(=O)Nc3c(Cl)cccc32)cc1` (centres undefined), the TGI in test [1], in test [2], in test [3], in test [5], in test [10] and in [6] was above 100 µM each time. Besides, the TGI in test [7] and in test [9] was above 100 µM throughout.
For `Cc1ccc(Cl)cc1Nc1nc(C(F)(F)F)ccc1C(=O)N1CCN(c2cccc(Cl)c2)CC1`, the GI50 in [1] was above 100 µM; in [2], 86.4 µM; in test [3] it was above 100 µM; in [4], above 100 µM; in test [5], above 100 µM; in test [6], above 100 µM. The GI50 in test [7], in test [8] and in test [9] was above 100 µM each time. Moreover, the TGI in [1], in [2], in test [3], in test [4], in test [5] and in [6] was above 100 µM in each case. Besides, the TGI in test [7], in test [8] and in [9] was above 100 µM throughout.
Regarding `Cc1cn2c(/C=C3\C(=O)Nc4ccc(O)cc43)c(-c3ccc(Cl)cc3)nc2s1`, the GI50 in test [1] was 17.8 µM; in test [2] it was 14.9 µM; in test [3], 15.3 µM; in test [4], 10.4 µM; in test [5], 7.31 µM; in test [6], 15.2 µM. For the same compound, the results for the GI50 in [7], in test [8] and in test [9] were 12.2 µM, 25.9 µM and 10.4 µM, respectively. Also, the TGI in test [1] is above 100 µM; in [2], 60.6 µM; in test [3] it was 30.3 µM; in test [4], 40.9 µM; in [5], 27.8 µM; in [6], 41.4 µM. The TGI in test [7] came out at 28.1 µM; in test [8], 62.7 µM; in test [9], 25.5 µM.
Consider `CCCCCCNC(=O)c1nc(-c2ccccc2)oc1Cc1ccc(OP(=O)(O)O)cc1`, for which the GI50 in [1] was 15.5 µM; in test [3] it was 17.4 µM; in test [4], 22.6 µM; in test [5] it was 16.6 µM; in test [10] it was 16.7 µM; in test [7], 15.9 µM. Also, the GI50 in [8] is 20 µM; in [9], 17 µM. The TGI in [1] was found to be 29.5 µM; in test [3], 32.3 µM; in test [4] it was 64 µM; in test [5] it was 30.8 µM; in test [10], 31.3 µM; in [7], 30.1 µM. Further, the TGI is 47.6 µM in [8] and 32.9 µM in [9].
For the compound `CS(=O)(=O)CCCn1c(=O)c(Oc2ccc(F)cc2F)cc2cnc(NC3CCOCC3)nc21`, the GI50 in test [1], in test [3], in test [4], in [5], in test [10] and in test [6] was above 25 µM in each case. The GI50 in test [7], in [8] and in test [9] was above 25 µM each time. The TGI in [1], in [3], in test [4], in test [5], in test [10] and in test [6] was above 25 µM each time. In addition, the TGI in [7], in test [8] and in test [9] was above 25 µM in each case.
Regarding `O=C1[C@@H]2C3c4ccccc4C([C@@H]2C(=O)N1c1ccccc1)S3(=O)=O`, the TGI in test [1], in [2], in test [4], in [10], in test [6] and in test [8] was above 100 µM in each case. For the same compound, in [9], the TGI is above 100 µM.
`O=C(N/N=C1/C(=O)N(c2ccc(Cl)cc2Cl)C(=O)C(=O)C1c1nc2ccccc2o1)c1ccccc1O` (centres undefined): the TGI is above 100 µM in [1]; above 100 µM in [2]; 75.2 µM in [3]; above 100 µM in [4]; 71 µM in test [7]; above 100 µM in [8]. In addition, the TGI in [9] was above 100 µM.
As to `O=C(O)[C@H](NS(=O)(=O)c1ccc2ccccc2c1)c1ccccc1`, the TGI in test [1], in test [4], in [5], in test [10], in test [7] and in test [8] was above 100 µM throughout. Besides, the TGI in test [9] is above 100 µM.
With `COc1cccc(/C=N/[N-]C(=O)c2ccncc2)c1[O-].[Cu+2].[OH3+]`, the GI50 was 90.8 µM in [1]; 58 µM in test [2]; 15.7 µM in test [3]; 33.6 µM in test [4]; 78.6 µM in [5]; above 100 µM in test [6]. Further, the GI50 in test [7] was above 100 µM; in test [8], 15.1 µM; in test [9], 49.7 µM. For the same compound, the TGI is above 100 µM in test [1]; above 100 µM in [2]; 86.4 µM in [3]; above 100 µM in [4]; above 100 µM in test [5]; above 100 µM in test [6]. For the same compound, the TGI is above 100 µM in test [7], 82 µM in test [8] and above 100 µM in test [9].
In the case of `COc1c(OC)c(OC)c(C(=O)/C=C/c2ccccc2)c(OC)c1OC`, the TGI in test [1] came out at 28.9 µM; in test [2] it was 35.5 µM; in test [4], 55.5 µM; in test [5], 30.7 µM; in test [6], 29.9 µM; in test [7] it was 27.3 µM. Further, the TGI in [8] came out at 32.9 µM; in test [9], 26.9 µM.
On to `CCC1C2C=CC(CC2)N1S(=O)(=O)c1ccc(C)cc1` (centres undefined), for which the TGI in test [1] was above 100 µM; in [2], above 100 µM; in [3], 76.3 µM; in test [4], above 100 µM; in [5], above 100 µM; in test [6] it was above 100 µM. Further, the TGI in test [8] was 89.6 µM; in [9], 36.6 µM.
